Data reported in patent US20160185820A1, “PRO[…], A GENE TRANSFER ENHANCER” (PHARIS BIOTEC GMBH, priority 2013, published 2016).
Non-standard residues stand in square brackets, D forms with d. Residues, ends and D or L forms follow the SMILES beside them. No end group written: not given here. pGlu = O=C1CC[C@@H](C(=O)O)N1

Assays:
[1] = Storage stability in aqueous solution (HPLC chromatogram, FIG. 1); type: physicochemical; conditions: storage at 4° C. for 13 days
Procedure: In the left column of FIG. 1 (HPLC chromatogram), results for protransduzin A upon storage for 0-13 days at −20° C. and at 4° C. (13 days) are compared with the results for protransduzin B under the same conditions.

cells = assay: Transduction of cells with protransduzin B; type: cell-based; conditions: 25 μg/ml protransduzin B, cells incubated 2 days
Procedure: Dissolve 0.5 mg of protransduzin B in 50 μl of DMSO. Then add 450 μl of PBS to the solution, fibrils forming within 3 min. Add this stock solution (1 mg/ml) to the vectors to obtain a concentration of protransduzin B of 25 μg/ml. Vortex the solution for 1 min, then centrifuge with 5000 g for 5 min. The supernatant is discarded, and the pellet is suspended in a little PBS and added to the cells. The cells are incubated in an incubator for 2 days.

Compound: CC[C@H](C)[C@H](NC(=O)[C@H](CCCCN)NC(=O)[C@H](CS)NC(=O)[C@@H]1CCC(=O)N1)C(=O)N[C@@H](CCCCN)C(=O)N[C@@H](CCC(N)=O)C(=O)N[C@H](C(=O)N[C@H](C(=O)N[C@@H](CC(N)=O)C(=O)N[C@@H](CCSC)C(=O)N[C@@H](Cc1c[nH]c2ccccc12)C(=O)N[C@@H](CCC(N)=O)C(=O)O)[C@@H](C)CC)[C@@H](C)CC [protransduzin B] ([pGlu]CKIKQIINMWQ-OH)
- degradation upon storage (HPLC peak height) [1]: hardly degraded at all
- cells transduced (cells): Up to 96%
- transduction rate (cells): significantly enhanced

Compound: QCKIKQIINMWQ [protransduzin A, reference compound]
- degradation upon storage (HPLC peak height) [1]: degraded almost to one half
